Drawing on US9242981B2, “Fused pyrazole derivatives as novel ERK inhibitors” (Merck Sharp & Dohme Corp., priority 2010, dated 2016), this text covers IC50 for 27 compounds.

Structures are written as SMILES. Some results are limits rather than exact numbers.

Chain of Mouse ERK2 protein (P63085 whole entry): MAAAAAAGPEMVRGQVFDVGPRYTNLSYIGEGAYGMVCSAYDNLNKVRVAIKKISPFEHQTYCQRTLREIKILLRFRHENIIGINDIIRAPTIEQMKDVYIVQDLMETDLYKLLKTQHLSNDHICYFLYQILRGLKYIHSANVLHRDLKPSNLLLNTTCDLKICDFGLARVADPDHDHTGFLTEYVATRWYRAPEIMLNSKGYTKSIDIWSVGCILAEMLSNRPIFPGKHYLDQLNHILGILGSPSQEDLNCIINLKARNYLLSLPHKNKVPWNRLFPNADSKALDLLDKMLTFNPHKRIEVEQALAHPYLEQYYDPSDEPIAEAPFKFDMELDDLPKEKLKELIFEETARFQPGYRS

The target of the assay is Mouse ERK2 protein (Mus musculus (Mouse), UniProt P63085). Kind of assay: Coupled MEK1/ERK2 IMAP assay or Active ERK2 IMAP assay. The format is biochemical. To be noted: Table 1, class symbols, 30 μM ATP. As for the experimental part:
14 μl of kinase buffer (10 mM Tris.HCl pH 7.2, 10 mM MgCl2, 0.01% Tween-20, 1 mM DTT) containing 0.4 ng unphosphorylated Mouse ERK2 protein is added to each well of a black 384-well assay plate. […] DMSO concentration during initial incubation is 6.7%. […] DMSO concentration during ERK activation was 4%. After one hour, reactions are terminated by addition of 60 μl IMAP detections beads in binding buffer (Molecular Devices). Binding is allowed to equilibrate for 30 minutes before reading the plate on an LJL Analyst Fluorescence Polarization plate reader.
Activated ERK2 activity was also determined in the IMAP assay format using the procedure outlined above. […] Reactions proceeded for 30 minutes before termination by addition of […] IMAP detection beads in binding buffer. Plates were read as above after 30 minute binding equilibration.
As for `CC1CC(NC(=O)N2CCc3[nH]nc(-c4ccncc4)c3C2)CN(Cc2ccccc2F)C1` (stereo not drawn) [Compound 52, N-[1-[(2-fluorophenyl)-methyl]-5-methyl-3-piperidinyl]-1,4,6,7-tetrahydro-3-(4-pyridinyl)-5H-pyrazolo[4,3-c]pyridine-5-carboxamide], the half-maximal inhibitory concentration (IC50) (in general, the concentration at which inhibition is half-maximal) fell in the range of 0.021 to 0.1 µM.
The value for `O=C(N[C@@H]1CCCN(Cc2nccs2)C1)N1CCc2[nH]nc(-c3ccncc3)c2C1` [Compound 55, 1,4,6,7-tetrahydro-3-(4-pyridinyl)-N-[1-(2-thiazolylmethyl)-3(R)-piperidinyl]-5H-pyrazolo[4,3-c]pyridine-5-carboxamide] was 0.021 to 0.1 µM; that for `O=C(N[C@@H]1CCCN(Cc2ccsc2)C1)N1CCc2[nH]nc(-c3ccncc3)c2C1` [Compound 56, 1,4,6,7-tetrahydro-3-(4-pyridinyl)-N-[1-(3-thienylmethyl)-3(R)-piperidinyl]-5H-pyrazolo[4,3-c]pyridine-5-carboxamide] was less than 0.02 µM; that for `O=C(N[C@@H]1CCCN(Cc2ncc[nH]2)C1)N1CCc2[nH]nc(-c3ccncc3)c2C1` [Compound 63, 1,4,6,7-tetrahydro-N-[1-(1H-imidazoL-2-ylmethyl)-3(R)-piperidinyl]-3-(4-pyridinyl)-5H-pyrazolo[4,3-c]pyridine-5-carboxamide] was 0.101 to 1 µM.
For `Cn1cnc(CN2CCC[C@@H](NC(=O)N3CCc4[nH]nc(-c5ccncc5)c4C3)C2)c1` [Compound 64, 1,4,6,7-tetrahydro-N-[1-[(1-methyl-1H-imidazoL-4-yl)methyl]-3(R)-piperidinyl]-3-(4-pyridinyl)-5H-pyrazolo[4,3-c]pyridine-5-carboxamide], the half-maximal inhibitory concentration (IC50) lay within 0.101 to 1 µM.
The value for `Cn1ccc(CN2CCC[C@@H](NC(=O)N3CCc4[nH]nc(-c5ccncc5)c4C3)C2)n1` [Compound 65, 1,4,6,7-tetrahydro-N-[1-[(1-methyl-1H-pyrazol-3-yl)methyl]-3(R)-piperidinyl]-3-(4-pyridinyl)-5H-pyrazolo[4,3-c]pyridine-5-carboxamide] was 0.101 to 1 µM.
The value for `O=C(N[C@@H]1CCCN(Cc2c(F)cccc2Cl)C1)N1CCc2[nH]nc(-c3ccncc3)c2C1` [Compound 66, N-[1-[(2-chloro-6-fluorophenyl)methyl]-3(R)-piperidinyl]-1,4,6,7-tetrahydro-3-(4-pyridinyl)-5H-pyrazolo[4,3-c]pyridine-5-carboxamide] was less than 0.02 µM; that for `O=C(N[C@@H]1CCCN(Cc2ccccc2C(F)(F)F)C1)N1CCc2[nH]nc(-c3ccncc3)c2C1` [Compound 67, 1,4,6,7-tetrahydro-3-(4-pyridinyl)-N-[1-[[2-(trifluoromethyl)phenyl]meth-yl]-3(R)-piperidinyl]-5H-pyrazolo[4,3-c]pyridine-5-carboxamide] was 0.021 to 0.1 µM; that for `O=C(N[C@@H]1CCCN(Cc2c(F)cccc2C(F)(F)F)C1)N1CCc2[nH]nc(-c3ccncc3)c2C1` [Compound 68, N-[1-[[2-fluoro-6-(trifluoromethyl)phenyl]meth-yl]-3(R)-piperidinyl]-1,4,6,7-tetrahydro-3-(4-pyridinyl)-5H-pyrazolo[4,3-c]pyridine-5-carboxamide] was 0.021 to 0.1 µM.
Compound `COc1ccccc1CN1CCC[C@@H](NC(=O)N2CCc3[nH]nc(-c4ccncc4)c3C2)C1` [Compound 70, 1,4,6,7-tetrahydro-N-[1-[(2-methoxyphenyl)methyl]-3(R)-piperidinyl]-3-(4-pyridinyl)-5H-pyrazolo[4,3-c]pyridine-5-carboxamide] showed an IC50 of 0.021 to 0.1 µM.
The value for `COC(=O)c1ccccc1CN1CCC[C@@H](NC(=O)N2CCc3[nH]nc(-c4ccncc4)c3C2)C1` [Compound 72, methyl 2-[[3(R)-[[[1,4,6,7-tetrahydro-3-(4-pyridinyl)-5H-pyrazolo[4,3-c]pyridin-5-yl]carbonyl]amino]-1-piperidinyl]methyl]benzoate] was 0.021 to 0.1 µM; that for `COc1cccc(OC)c1CN1CCC[C@@H](NC(=O)N2CCc3[nH]nc(-c4ccncc4)c3C2)C1` [Compound 73] was 0.101 to 1 µM.
The value for `O=C(N[C@@H]1CCCN(Cc2ccccc2N2CCOCC2)C1)N1CCc2[nH]nc(-c3ccncc3)c2C1` [Compound 74, 1,4,6,7-tetrahydro-N-[1-[[2-(4-morpholinyl)phenyl]-methyl]-3(R)-piperidinyl]-3-(4-pyridinyl)-5H-pyrazolo[4,3-c]pyridine-5-carboxamide] was 0.101 to 1 µM; that for `Cc1cc(-c2n[nH]c3c2CN(C(=O)N[C@@H]2CCCN(Cc4c(F)cccc4F)C2)CC3)ccn1` [Compound 81, N-[1-[(2,6-difluorophenyl)-methyl]-3(R)-piperidinyl]-1,4,6,7-tetrahydro-3-(2-methyl-4-pyridinyl)-5H-pyrazolo[4,3-c]pyridine-5-carboxamide] was 0.021 to 0.1 µM.
The figure for `COC(=O)C1CC(NC(=O)N2CCc3[nH]nc(-c4ccnc(C)c4)c3C2)CN(Cc2c(F)cccc2F)C1` (stereo not drawn) [Compound 82, methyl 1-[(2,6-difluorophenyl)methyl]-5-[[[1,4,6,7-tetrahydro-3-(2-methyl-4-pyridinyl)-5H-pyrazolo[4,3-c]pyridin-5-yl]carbonyl]amino]-3-piperidinecarboxylate] is 0.101 to 1 µM; for `Cc1cc(-c2n[nH]c3c2CN(C(=O)NC2CC(C(=O)O)CN(Cc4c(F)cccc4F)C2)CC3)ccn1` (stereo not drawn) [Compound 83, 1-[(2,6-difluorophenyl)-methyl]-5-[[[1,4,6,7-tetrahydro-3-(2-methyl-4-pyridinyl)-5H-pyrazolo[4,3-c]pyridin-5-yl]carbonyl]amino]-3-piperidinecarboxylic acid] it is 0.101 to 1 µM; for `Cc1cc(-c2n[nH]c3c2CN(C(=O)NC2CCCN(Cc4c(F)cccc4Cl)C2)CC3)ccn1` (stereo not drawn) [Compound 85, N-[1-[(2-chloro-6-fluorophenyl)methyl]-3-piperidinyl]-1,4,6,7-tetrahydro-3-(2-methyl-4-pyridinyl)-5H-pyrazolo[4,3-c]pyridine-5-carboxamide] it is less than 0.02 µM.
Take `Cc1cc(-c2n[nH]c3c2CN(C(=O)NC2CC(CO)CN(Cc4c(F)cccc4F)C2)CC3)ccn1` (stereo not drawn) [Compound 86, N-[1-[(2,6-difluorophenyl)-methyl]-5-(hydroxymethyl)-3-piperidinyl]-1,4,6,7-tetrahydro-3-(2-methyl-4-pyridinyl)-5H-pyrazolo[4,3-c]pyridine-5-carboxamide]: the concentration for half-maximal inhibition (IC50) was 0.021 to 0.1 µM.
With `Cc1cc(-c2n[nH]c3c2CN(C(=O)NC2(C)CCCN(Cc4c(F)cccc4F)C2)CC3)ccn1` (stereo not drawn) [Compound 87, N-[1-[(2,6-difluorophenyl)-methyl]-3-methyl-3-piperidinyl]-1,4,6,7-tetrahydro-3-(2-methyl-4-pyridinyl)-5H-pyrazolo[4,3-c]pyridine-5-carboxamide], the IC50 fell in the range of 0.101 to 1 µM.
The value for `Cc1cc(-c2n[nH]c3c2CN(C(=O)NC2(C)CCCN(Cc4csc5ccccc45)C2)CC3)ccn1` (stereo not drawn) [Compound 88, N-[1-(benzo[b]thien-3-ylmethyl)-3-methyl-3-piperidinyl]-1,4,6,7-tetrahydro-3-(2-methyl-4-pyridinyl)-5H-pyrazolo[4,3-c]pyridine-5-carboxamide] was 0.101 to 1 µM; that for `Cc1cc(-c2n[nH]c3c2CN(C(=O)NC2CC(C)CN(Cc4c(F)cccc4F)C2)CC3)ccn1` (stereo not drawn) [Compound 89, N-[1-[(2,6-difluorophenyl)-methyl]-5-methyl-3-piperidinyl]-1,4,6,7-tetrahydro-3-(2-methyl-4-pyridinyl)-5H-pyrazolo[4,3-c]pyridine-5-carboxamide] was 0.021 to 0.1 µM; that for `COc1cccc(F)c1CN1CC(C)CC(NC(=O)N2CCc3[nH]nc(-c4ccnc(C)c4)c3C2)C1` (stereo not drawn) [Compound 90, N-[1-[(2-fluoro-6-methoxyphenyl)methyl]-5-methyl-3-piperidinyl]-1,4,6,7-tetrahydro-3-(2-methyl-4-pyridinyl)-5H-pyrazolo[4,3-c]pyridine-5-carboxamide] was 0.021 to 0.1 µM.
The value for `Cc1cc(-c2n[nH]c3c2CN(C(=O)NC2CC(C)CN(Cc4c(F)cccc4Cl)C2)CC3)ccn1` (stereo not drawn) [Compound 91, N-[1-[(2-chloro-6-fluorophenyl)methyl]-5-methyl-3-piperidinyl)-1,4,6,7-tetrahydro-3-(2-methyl-4-pyridinyl)-5H-pyrazolo[4,3-c]pyridine-5-carboxamide] was less than 0.02 µM; that for `CCC1(NC(=O)N2CCc3[nH]nc(-c4ccnc(C)c4)c3C2)CCCN(Cc2c(F)cccc2F)C1` (stereo not drawn) [Compound 92, N-[1-[(2,6-difluorophenyl)-methyl]-3-ethyl-3-piperidinyl]-1,4,6,7-tetrahydro-3-(2-methyl-4-pyridinyl)-5H-pyrazolo[4,3-c]pyridine-5-carboxamide] was 0.101 to 1 µM.
The figure for `CCC1(NC(=O)N2CCc3[nH]nc(-c4ccnc(C)c4)c3C2)CCCN(Cc2csc3ccccc23)C1` (stereo not drawn) [Compound 93, N-[1-(benzo[b]thien-3-ylmethyl)-3-ethyl-3-piperidinyl]-1,4,6,7-tetrahydro-3-(2-methyl-4-pyridinyl)-5H-pyrazolo[4,3-c]pyridine-5-carboxamide] is 0.101 to 1 µM; for `Cc1cc(-c2n[nH]c3c2CN(C(=O)NC2CC(C)CN(Cc4c(C)cccc4C)C2)CC3)ccn1` (stereo not drawn) [Compound 94, N-[1-[(2,6-dimethylphenyl)-methyl]-5-methyl-3-piperidinyl]-1,4,6,7-tetrahydro-3-(2-methyl-4-pyridinyl)-5H-pyrazolo[4,3-c]pyridine-5-carboxamide] it is 0.021 to 0.1 µM; for `Cc1cc(-c2n[nH]c3c2CN(C(=O)NC2CC(C)CN(Cc4c(F)cccc4C(F)(F)F)C2)CC3)ccn1` (stereo not drawn) [Compound 95, N-[1-[[2-fluoro-6-(trifluoro-methyl)phenyl]methyl]-5-methyl-3-piperidinyl]-1,4,6,7-tetrahydro-3-(2-methyl-4-pyridinyl)-5H-pyrazolo[4,3-c]pyridine-5-carboxamide] it is 0.101 to 1 µM.
